Source: US4260805A, “1-Descarboxy-1-ketoester (ketoacid)-prostaglandins” (American Cyanamid Company, priority 1979, dated 1981)

System: bronchospasms elicited by intravenous injections of acetylcholine
Assay: Bronchodilator activity against bronchospasm elicited by acetylcholine, Konzett procedure
Format: in vivo, guinea pigs
Settings: Cavia porcellus; spasmogen acetylcholine; three logarithmic cumulative intravenous doses; guinea pig
Method: The compounds of this invention are useful as bronchodilators for the treatment of asthma and chronic bronchitis. Bronchodilator activity is determined in guinea pigs against bronchospasms elicited by intravenous injections of 5-hydroxytryptamine, histamine or acetylcholine by the Konzett procedure. [See J. Lulling, P. Lievens, F. El Sayed and J. Prignot, Arzneimittel-Forschung, 18, 955 (1968).]
In Table which follows bronchodilator activity for representative compounds of this invention against one or more of three spasmogenic agents is expressed as an ED50 determined from the results obtained with three logarithmic cummulative intravenous doses. In this assay, these compounds of this invention provide an effect of longer duration than does natural 1-PGE1 or 1-PGE2.

CCCCCC(C)(O)/C=C/[C@H]1[C@H](O)CC(=O)[C@@H]1CCCCCCC(=O)C(=O)OCC (relative stereo) [dl-1,9-dioxo-1-carbethoxy-11α,15-dihydroxy-15-methyl-13-trans-prostene]
ED50: > 3.2 mg/kg
